Experimental findings from US20100273876A1, “ANTIBACTERIAL FORMULATION COMPRISING A DIALKYL SULPHOSUCCINATE AND A CARBANILIDE ANTIBACTERIAL AGENT” (priority 2007, published 2010) are described below.

Assay in all cases: (S)DDA disc diffusion
The test system of one test is P. acnes PRP-003. Format: cell-based, Propionibacterium acnes. How it is done: (§1) The propionibacteria were cultured and maintained on Wilkins-Chalgren Anaerobe Medium (agar and broth) at pH 6.0; all cultures were incubated anaerobically at 37° C. for 72 hours.
(§2) A sterile paper disc was impregnated with a sample of the test compound in a suitable solvent and 30 minutes allowed for the solvents to evaporate (where possible). The disc was then placed on an agar plate onto which the test micro-organism had been inoculated. The plate was then incubated under the conditions described above, following which it was examined visually for signs of microbial growth. If the test compound had antimicrobial activity, a circular zone of no growth would be obtained around the disc. The diameter of this zone of “inhibition” was measured using a ProtoCOL™ automated zone sizer (Synbiosis, Cambridge, UK). In general, a greater diameter and/or area of the zone of inhibition indicates a greater antimicrobial activity in the relevant test compound, although other factors such as test compound mobility through the agar gel may also influence the result.
(§3) Two test a compounds A and B were placed on a single paper disc and the above described DDA procedure repeated. An increase in diameter of the zone of inhibition, compared to the greater of the zone diameters for the two compounds individually, was taken to indicate potential antimicrobial synergy. In practical terms, an increase of greater than 5 mm could be treated as significant.
(§4) Both the DDA and the SDDA test may be carried out using an agar gel supplemented with lipid and/or salt to simulate some of the major components present in human skin and to assess whether these substances might reduce the antimicrobial activity observed for the test compound. Performance under these conditions can provide a more reliable indication of activity on topical application. The supplements used in Examples 1, 11, 12 and 13 below were lipid (either Tween™ 80 at 1% v/v (Example 1) or triolein at 1% v/v (Examples 11, 12 and 13) and sodium chloride (100 mM).

The next test relates to P. acnes PRP-007. Format: cell-based, Propionibacterium acnes. How it is done: as §1, §2, §3, §4
For the next test, the system named is P. acnes PRP-023. Format: cell-based, Propionibacterium acnes. How it is done:
as §1, §2, §3, §4

Another test has as its system P. acnes PRP-026. It counts as cell-based, Propionibacterium acnes. How it is done: as §1, §2, §3, §4
A further test concerns P. acnes PRP-053. It counts as cell-based, Propionibacterium acnes. How it is done:
as §1, §2, §3, §4

Another test concerns P. acnes PRP-059. Format: cell-based, Propionibacterium acnes. How it is done: as §1, §2, §3, §4
The test system of another test is EMRSA 15. It counts as cell-based, Staphylococcus aureus. The settings on record: 200 μg per disc. How it is done: as §2, §3
(§5) The activities of DOSS and TCC against S. aureus ATCC 29213 and EMRSA 15 were determined using (S)DDAs as described above. 200 μg of the DOSS and/or the TCC were loaded onto each disc. All the experiments were conducted in triplicate.

Another test has as its system S. aureus ATCC 29213. It counts as cell-based, Staphylococcus aureus. The settings on record: 200 μg per disc. How it is done:
as §2, §3, §5

A further test relates to C. xerosis NCTC 11861. It counts as cell-based, Corynebacterium xerosis. The settings on record: for DDA: 200 μg per disc. How it is done:
Several Corynebacterium test species were also used in this study, namely C. mucifaciens ATCC 700355, C. striatum NCTC 764, C. xerosis NCTC 11861 and C. jeikeium NCTC 11915. These Gram-positive pathogens are closely related to organisms (aerobic diphtheroids of the genus Corynebacterium) that cause body odour. C. mucifaciens and C. striatum were cultured and maintained on Mueller-Hinton Medium (agar and broth) and were incubated aerobically at 37° C. for 24 hours. C. xerosis and C. jeikeium were cultured and maintained on Mueller-Hinton Medium containing 5% (v/v) lysed horse blood (agar and broth) and were incubated aerobically at 37° C. for 72 hours. A sterile paper disc was impregnated with a sample of the test compound in a suitable solvent and 30 minutes allowed for the solvents to evaporate (where possible). The disc was then placed on an agar plate onto which the test micro-organism had been inoculated. The plate was then incubated under the conditions described above, following which it was examined visually for signs of microbial growth. If the test compound had antimicrobial activity, a circular zone of no growth would be obtained around the disc. The diameter of this zone of “inhibition” was measured using a ProtoCOL™ automated zone sizer (Synbiosis, Cambridge, UK). In general, a greater diameter and/or area of the zone of inhibition indicates a greater antimicrobial activity in the relevant test compound, although other factors such as test compound mobility through the agar gel may also influence the result. Two test a compounds A and B were placed on a single paper disc and the above described DDA procedure repeated. An increase in diameter of the zone of inhibition, compared to the greater of the zone diameters for the two compounds individually, was taken to indicate potential antimicrobial synergy. In practical terms, an increase of greater than 5 mm could be treated as significant. The activities of DOSS and TCC were determined, using (S)DDAs, against the test organisms C. mucifaciens ATCC 700355, C. striatum NCTC 764, C. xerosis NCTC 11861 and C. jeikeium NCTC 11915. 200 μg of the DOSS and/or the TCC were loaded onto each disc. All the experiments were conducted in triplicate.

Test [1] deals with Bact. fragilis ATCC 25285. It counts as cell-based, Bacteroides fragilis. The settings on record: 200 μg per disc. How it is done: as §2
(§6) Two test a compounds A and B were placed on a single paper disc and the above described DDA procedure repeated. […]
(§7) The activities of DOSS and TCC were determined, using (S)DDAs, against a panel of further test micro-organisms, namely B. cereus ATCC 11778, Bact. fragilis ATCC 25285, Clost. difficile […] and E. faecalis ATCC 29212. […]

The next test relates to E. faecalis ATCC 29212. It counts as cell-based, Enterococcus faecalis. The settings on record: 200 μg per disc. How it is done: as §2, §6, §7
Where [2] appears, read: P. acnes PRP-003 (Tet), 200 μg TCC or 50 μg DOSS per disc.
The mark [3] stands for this setting: P. acnes PRP-007 (Clin), 200 μg TCC or 50 μg DOSS per disc.
Where [4] appears, read: P. acnes PRP-023 (MLSK), 200 μg TCC or 50 μg DOSS per disc.
[5] abbreviates: P. acnes PRP-026 (MLS), 200 μg TCC or 50 μg DOSS per disc.
[6] abbreviates: P. acnes PRP-053 (Tet/MLS), 200 μg TCC or 50 μg DOSS per disc.
[7] abbreviates: P. acnes PRP-059 (MLS), 200 μg TCC or 50 μg DOSS per disc.

As to `O=C(Nc1ccc(Cl)cc1)Nc1ccc(Cl)c(Cl)c1` [TCC, N-(4-chlorophenyl)-N′-(3,4-dichlorophenyl) urea], the DDA is on record as 23.64 mm with P. acnes PRP-003 (setting [2]); 13.87 mm with P. acnes PRP-007 (setting [3]); 21.27 mm in the test on P. acnes PRP-023 (setting [4]); 22.71 mm in the test with P. acnes PRP-026 (setting [5]); 21.58 mm with P. acnes PRP-053 (setting [6]); 19.73 mm in the test on P. acnes PRP-059 (setting [7]). Further, the DDA is recorded as 12.42 mm in the test with EMRSA 15; 12.84 mm in the test on S. aureus ATCC 29213; 11.65 mm with C. xerosis NCTC 11861; 14.71 mm in test [1]; 9.68 mm with E. faecalis ATCC 29212.

On to dioctyl sodium sulphosuccinate [DOSS], for which the DDA in the test with P. acnes PRP-003 (setting [2]) stood at 27.95 mm; in the test on P. acnes PRP-003 (P. acnes PRP-003, 200 μg per disc), 42.96 mm; with P. acnes PRP-007 (setting [3]) it was 21.38 mm; in the test with P. acnes PRP-007 (P. acnes PRP-007, 200 μg per disc) it was 47.32 mm; with P. acnes PRP-023 (setting [4]) it was 26.41 mm; with P. acnes PRP-023 (P. acnes PRP-023, 200 μg per disc), 49.49 mm. Further, the DDA is 28.26 mm in the test on P. acnes PRP-026 (setting [5]); 49.81 mm in the test on P. acnes PRP-026 (P. acnes PRP-026, 200 μg per disc); 17.78 mm in the test on P. acnes PRP-053 (setting [6]); 49.49 mm with P. acnes PRP-053 (P. acnes PRP-053, 200 μg per disc); 11.82 mm in the test with P. acnes PRP-059 (setting [7]); 43.58 mm with P. acnes PRP-059 (P. acnes PRP-059, 200 μg per disc). In addition, the DDA with EMRSA 15 is 12.42 mm; with S. aureus ATCC 29213, 12.22 mm; with C. xerosis NCTC 11861, 0.0 mm; in test [1], 19.74 mm; in the test on E. faecalis ATCC 29212 it was 10.31 mm. The “DDA + salt” value in the test with P. acnes PRP-003 (P. acnes PRP-003, 200 μg per disc, sodium chloride 100 mM) stood at 46.69 mm; in the test with P. acnes PRP-007 (P. acnes PRP-007, 200 μg per disc, sodium chloride 100 mM), 42.96 mm; with P. acnes PRP-023 (P. acnes PRP-023, 200 μg per disc, sodium chloride 100 mM), 47.32 mm; with P. acnes PRP-026 (P. acnes PRP-026, 200 μg per disc, sodium chloride 100 mM) it was 48.25 mm; in the test with P. acnes PRP-053 (P. acnes PRP-053, 200 μg per disc, sodium chloride 100 mM) it was 44.82 mm; with P. acnes PRP-059 (P. acnes PRP-059, 200 μg per disc, sodium chloride 100 mM), 44.20 mm. In addition, the “DDA + lipid” value in the test with P. acnes PRP-003 (P. acnes PRP-003, 200 μg per disc, triolein 1% v/v) worked out at 43.58 mm; in the test on P. acnes PRP-007 (P. acnes PRP-007, 200 μg per disc, triolein 1% v/v) it was 44.82 mm; with P. acnes PRP-023 (P. acnes PRP-023, 200 μg per disc, triolein 1% v/v) it was 46.38 mm; with P. acnes PRP-026 (P. acnes PRP-026, 200 μg per disc, triolein 1% v/v) it was 43.89 mm; in the test on P. acnes PRP-053 (P. acnes PRP-053, 200 μg per disc, triolein 1% v/v), 42.02 mm; in the test with P. acnes PRP-059 (P. acnes PRP-059, 200 μg per disc, triolein 1% v/v) it was 44.82 mm. Moreover, the SDDA area increase in the test with C. xerosis NCTC 11861 is 145.4%. For the same compound, the SDDA increase in the test on C. xerosis NCTC 11861 is on record as 6.6 mm. Further, the “SDDA with TCC” value in the test with C. xerosis NCTC 11861 (200 μg DOSS + 200 μg TCC on one disc) worked out at 18.25 mm.
